# Reference: patent US11226337B2, “Chemoproteomic profiling of protein electrophilic and oxidative post-translational modifications” (Zenagem, LLC, priority 2017, dated 2022)
# Key:
# [1] = biological target: T1, AMD1 (Homo sapiens, UniProt P17707); experiment: expression and probe 1 labelling of endogenous AMD1 after DFMO; assay type: cell-based; details: HEK293T, DFMO 5 mM 48 h, 10 μM L-methionine
# T1 construct: Full-length genes encoding three probe 1- and one probe 2-targeted proteins were amplified from a cDNA library; expressed in transfected cells; host or cells: HEK293T
# T1 sequence (P17707 68-334 limits assumed): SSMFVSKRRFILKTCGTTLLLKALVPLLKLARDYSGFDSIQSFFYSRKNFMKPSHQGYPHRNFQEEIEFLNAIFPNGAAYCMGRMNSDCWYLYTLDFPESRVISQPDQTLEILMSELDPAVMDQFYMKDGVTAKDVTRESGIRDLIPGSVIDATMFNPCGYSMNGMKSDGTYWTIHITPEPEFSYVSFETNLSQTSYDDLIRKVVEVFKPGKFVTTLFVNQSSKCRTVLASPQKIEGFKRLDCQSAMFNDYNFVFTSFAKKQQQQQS
# T1 sequence (P17707 1-67 limits assumed): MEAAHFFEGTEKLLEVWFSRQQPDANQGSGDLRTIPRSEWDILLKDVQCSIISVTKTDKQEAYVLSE
# Experimental: To enhance expression and labelling of endogenous AMD1, HEK293T cells were treated with difluoromethylornithine (DFMO; purchased from Santa Cruz Biotechnology) (5 mM) for 48 h in RPMI 1640 media (Fisher Scientific, A14517-01) containing 10 μM L-methionine. Cells were washed and treated with probe 1 in the absence of methionine. […] Probe 1-labelling, proteome preparation, fluorophore conjugation, gel-based analysis and western blotting were performed as described above in Examples 2 and 3. Band intensities were quantified using ImageJ software^75. […] Briefly, about 0.5 mg soluble proteomes isolated from probe 1-labelled AMD1-transfected cells grown in low versus high methionine were each diluted to 1 mL with 50 mM Na-HEPES buffer (pH 7.5) supplemented with 500 mM NaCl and 1% Triton X-100. Each proteome was incubated overnight at 4° C. by rotation with a pre-equilibrated slurry (25 μL resin (CV), anti-FLAG M2 affinity gel, Sigma). The resin was washed by resuspension and centrifugation with the same buffer supplemented with 500 mM NaCl (5×1 mL) followed by 100 mM NaCl (2×1 mL). The bound AMD1 protein was eluted in 100 μL of low salt buffer containing […] (FLAG)3 peptide [DYKDHD-(G)-DYKDHD-(I)-DYKD4K] (SEQ ID NO: 47). To prevent contamination from the excess (FLAG)3 peptide in the elution, the protein was purified by gel. […]
# [2] = biological target: T1, AMD1; details: literature statement; cited from earlier work
substance,measurement,setting,value
difluoromethylornithine [DFMO],change in endogenous active AMD1 detected by probe 1,[1],DMFO-induced changes in the endogenous concentration of active AMD1
same,effect on expression of AMD1,[2],increase the expression of AMD1
